pEC50, pIC50: −log10 of the molar value. Where a name gives a salt, the structure may show the parent alone.
Tested on: Male Sprague-Dawley rats
Test: Myocardial ischemia model: coronary artery occlusion and reperfusion, infarct size
Type: in vivo, rat
Settings: 10 mg/kg i.v. 5 min prior to reperfusion (Example 3); 20 min occlusion, 60 min reperfusion
Excerpt: Male Sprague-Dawley rats are anesthetized and the chest is opened. A thin silk thread is placed around the left anterior descending coronary artery. The silk is passed through a plastic tube and the chest is closed. After stable hemodynamics, the coronary artery is occluded by applying tension to the thread via the tube. Successful occlusion is confirmed by a decrease in systolic blood pressure and alterations in ECG. Reperfusion is initiated by releasing the tension on the ligature.
For testing efficacy of Example 3 in this animal model, animals are divided into three groups. One group received the compound of Example 3 at 10 mg/kg i.v. 10 min prior to occlusion. A second group received compound of Example 3 at the same dose 5 min prior to reperfusion. The third group served as vehicle control. The period of occlusion is 20 min, followed by reperfusion for 60 min. After sacrifice infarct size is measured by staining of heart tissue slices with triphenyltetrazolium chloride and expressed as a percent (%) of area at risk.
A similar study is carried out with cariporide, a reference standard.

Structure (SMILES) | infarct size (% of area at risk), effect when given prior to reperfusion
CC(C)c1ccc(C(=O)NC(=N)N)cc1S(C)(=O)=O [cariporide, reference compound] | no effect

Same assay, conditions: 10 mg/kg i.v. 10 min prior to occlusion (Example 3); 20 min occlusion, 60 min reperfusion

Structure (SMILES) | infarct size (% of area at risk), effect when given prior to ischemia
CC(C)c1ccc(C(=O)NC(=N)N)cc1S(C)(=O)=O [cariporide, reference compound] | significant protection

Molecular target: T1, human PARP (PARP1) (Homo sapiens, UniProt P09874)
Test: PARP enzyme assay of Table 3 (radioactive enzyme assay or 'ELISA' enzyme assay);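 note: Baculovirus-expressed PARP1 from insect cells, activity read as tritium from labeled NAD in acid-precipitated protein, or as biotin-NAD built into plate-bound histone by absorbance at 450 nm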
Settings: IC50 (μM), fifty percent inhibitory concentration; recombinant human PARP
Description: The compounds of this invention are then tested with this enzyme preparation using either the radioactive enzyme assay or by the “ELISA” enzyme assay as set forth below.
Incorporation of radioactivity from labeled NAD into acid-precipitated protein is measured. The reaction mixture (volume 100 μL or 50 μL, in a test-tube or 96-well plate) contained 100 μg/mL calf thymus DNA (sonicated), 100 μg/mL histones, 100 mM Tris (pH 8.0), 1.0 mM DTT, 10 mM MgCl2, NAD (200 μm, 0.65 microcurie/mL), and varying amounts of enzyme. The reaction was incubated for 10 min at 37° C. or at room temperature for 60 min. The reaction was stopped and protein precipitated by addition of ice-cold trichloroacetic acid (TCA; 10% or 20% aqueous w/v). After brief storage in ice or at 4° C. for 2 hrs, the reaction mixture is filtered under vacuum through a glass fiber filter (2.5 cm disc, or 96-well filter plate). After washing with TCA and ethanol, the filter is dried and counted for tritium CPM after addition of scintillation fluid.
Incorporation of biotin-NAD into histone coated on plate is measured. A 96-well protein-binding EIA plate is coated with histone and blocked with bovine serum albumin. The reaction mixture (50 μL) contained DNA, buffer, enzyme, (test compound), and 250 μM of NAD and 5 μL of biotin-NAD (Trevigen). After reaction at room temperature the wells are washed and treated with Extravidin (Sigma). After incubation and washing color is developed with the peroxidase substrate TMB (Sigma). The TMB reaction is quenched with 2M sulfurric acid and the absorbance at 450 nm is read.

T1 sequence (P09874 whole entry): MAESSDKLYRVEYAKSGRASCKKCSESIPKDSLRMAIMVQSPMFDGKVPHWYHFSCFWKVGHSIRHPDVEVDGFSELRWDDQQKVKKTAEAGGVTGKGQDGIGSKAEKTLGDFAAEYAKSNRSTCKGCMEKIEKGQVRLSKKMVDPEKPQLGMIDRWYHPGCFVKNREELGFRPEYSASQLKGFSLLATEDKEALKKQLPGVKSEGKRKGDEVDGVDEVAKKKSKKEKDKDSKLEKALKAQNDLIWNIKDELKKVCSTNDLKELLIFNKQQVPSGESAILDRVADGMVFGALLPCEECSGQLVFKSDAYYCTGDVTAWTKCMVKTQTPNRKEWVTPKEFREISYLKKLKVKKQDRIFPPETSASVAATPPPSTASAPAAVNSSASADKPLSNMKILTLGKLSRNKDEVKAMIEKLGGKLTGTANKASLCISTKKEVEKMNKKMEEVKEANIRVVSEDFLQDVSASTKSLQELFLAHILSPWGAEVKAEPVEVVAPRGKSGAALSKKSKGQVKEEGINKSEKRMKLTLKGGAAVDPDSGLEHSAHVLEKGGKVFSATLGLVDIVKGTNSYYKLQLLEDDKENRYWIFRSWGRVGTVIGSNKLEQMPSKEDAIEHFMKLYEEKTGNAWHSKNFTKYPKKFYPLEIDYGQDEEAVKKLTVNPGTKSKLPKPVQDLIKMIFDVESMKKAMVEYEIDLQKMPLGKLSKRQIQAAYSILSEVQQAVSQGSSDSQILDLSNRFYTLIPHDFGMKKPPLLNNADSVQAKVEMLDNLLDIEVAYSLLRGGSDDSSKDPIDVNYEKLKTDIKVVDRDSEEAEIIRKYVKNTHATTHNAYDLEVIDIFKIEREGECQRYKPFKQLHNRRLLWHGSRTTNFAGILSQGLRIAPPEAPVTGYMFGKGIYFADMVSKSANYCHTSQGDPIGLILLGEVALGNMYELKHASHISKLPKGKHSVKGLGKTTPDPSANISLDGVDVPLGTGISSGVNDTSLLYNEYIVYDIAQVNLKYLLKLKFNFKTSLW

Structure (SMILES) | IC50 [µM]
Cc1ccc(-n2c(N3CCNCC3)c(C=O)c3ccccc32)cc1 [Example 53, 1-(4-Methylphenyl)-2-(piperazin-1-yl)-1H-indole-3-carboxaldehyde] | 19.9
COc1cccc(-n2c(N3CCNCC3)c(C=O)c3ccccc32)c1 [Example 11B-8, 2-(Piperazin-1-yl)-1-(3-methoxyphenyl)-1H-indole-3-carboxaldehyde] | 5.5
O=Cc1c(N2CCNCC2)n(-c2cccc(CO)c2)c2ccccc12 [Example 57, 1-(3-Hydroxymethylphenyl)-2-(piperazin-1-yl)-1H-indole-3-carboxaldehyde] | 1.4
Cc1cccc(-n2c(N3CCNCC3)c(C=O)c3ccccc32)c1 [Example 11B-11, 2-(Piperazin-1-yl)-1-(3-methylphenyl)-1H-indole-3-carboxaldehyde] | 3
O=Cc1c(N2CCSCC2)n(-c2ccccc2)c2ccccc12 [Example 1, 1-Phenyl-2-(thiomorphin-4-yl)-1H-indole-3-carboxaldehyde] | 15.1
O=Cc1c(N2CCNCC2)n(-c2cccc(F)c2)c2ccccc12 [Example 11B-10, 2-(Piperazin-1-yl)-1-(3-fluorophenyl)-1H-indole-3-carboxaldehyde] | 2.5
O=Cc1c(N2CCNCC2)n(-c2ccc(Br)cc2)c2ccccc12 [Example 11B-5, 2-(Piperazin-1-yl)-1-(4-bromophenyl)-1H-indole-3-carboxaldehyde] | 3
CC(C)(C)c1ccc(-n2c(N3CCNCC3)c(C=O)c3ccccc32)cc1 [Example 11B-4, 2-(Piperazin-1-yl)-1-(4-tert-butylphenyl)-1H-indole-3-carboxaldehyde] | 10
CN(C)c1ccc(-n2c(N3CCNCC3)c(C=O)c3ccccc32)cc1 [Example 51, 1-(4-Dimethylaminophenyl)-2-piperazin-1-yl-1H-indole-3-carboxaldehyde] | 26
C=Cc1ccc(-n2c(N3CCNCC3)c(C=O)c3ccccc32)cc1 [Example 56, 2-(Piperazin-1-yl)-1-(4-vinylphenyl)-1H-indole-3-carboxaldehyde] | 1.5
O=Cc1c(N2CCN(CCO)CC2)n(-c2ccccc2)c2ccccc12 [Example 2, 2-[4-(2-hydroxyethyl)piperazin-1-yl]-1-phenyl-1H-indole-3-carboxaldehyde] | 4.6
Cc1ccc(-n2c(N3CCNCC3)c(C=O)c3ccccc32)cc1[N+](=O)[O-] [Example 50, 1-(4-Methyl-3-nitrophenyl)-2-(piperazin-1-yl)-1H-indole-3-carboxaldehyde] | 1.4
O=Cc1c(N2CCNCC2)n(-c2ccc(F)cc2)c2ccccc12 [Example 54, 1-(4-Fluorophenyl)-2-(piperazin-1-yl)-1H-indole-3-carboxaldehyde Hydrochloride] | 3.1
O=Cc1c(N2CCNCC2)n(-c2ccc(F)c(Cl)c2)c2ccccc12 [Example 11B-7, 2-(Piperazin-1-yl)-1-(3-chloro-4-fluorophenyl)-1H-indole-3-carboxaldehyde] | 4
O=Cc1c(N2CCNCC2)n(-c2cccc([N+](=O)[O-])c2)c2ccccc12 [Example 11B-1, 2-(Piperazin-1-yl)-1-(3-nitrophenyl)-1H-indole-3-carboxaldehyde] | 2.5
COc1ccc(-n2c(N3CCNCC3)c(C=O)c3ccccc32)cc1 [Example 11B-3, 2-(Piperazin-1-yl)-1-(4-methoxyphenyl)-1H-indole-3-carboxaldehyde] | 4.5
N#Cc1ccc(-n2c(N3CCNCC3)c(C=O)c3ccccc32)cc1 [Example 63, 4-[3-Formyl-2-(piperazin-1-yl)-indol-1-yl]-benzonitrile] | 2.3
O=Cc1c(N2CCNCC2)n(-c2cccc3ccccc23)c2ccccc12 [Example 11B-2, 2-(Piperazin-1-yl)-1-(1-naphthyl)-1H-indole-3-carboxaldehyde] | 4
CCCCc1ccc(-n2c(N3CCNCC3)c(C=O)c3ccccc32)cc1 [Example 61, 1-(4-Butylphenyl-2-(piperazin-1-yl)-1H-indole-3-carboxaldehyde Hydrochloride] | 2.7

Structure (SMILES) | IC50 [µM]
CCOc1cccc(-n2c(N3CCNCC3)c(C=O)c3ccccc32)c1 [Example 58, 1-(3-Ethoxyphenyl)-2-(piperazin-1-yl)-1H-indole-3-carboxaldehyde] | 0.85
O=Cc1c(N2CCN(CCO)CC2)n(-c2ccccc2)c2ccccc12 [Example 41, 2-[4-(2-Hydroxethyl)piperazin-1-yl]-1-phenyl-1H-indole-3-carboxaldehyde Hydrochloride] | 43.1
CC(=O)Nc1cccc(-n2c(N3CCNCC3)c(C=O)c3ccccc32)c1 [Example 62, N-{3-[3-Formyl-2-(piperazin-1-yl)-indol-1-yl]phenyl}-acetamide Hydrochloride] | 0.99
CSc1ccc(-n2c(N3CCNCC3)c(C=O)c3ccccc32)cc1 [Example 11B-9, 2-(Piperazin-1-yl)-1-(4-thiomethylphenyl)-1H-indole-3-carboxaldehyde] | 4
CC(C)(C)OC(=O)N1CC2CC1CN2c1c(C=O)c2ccccc2n1-c1ccccc1 (stereo not drawn) [Example 45, 5-(3-Formyl-1-phenyl-1H-indol-2yl)-2,5-diazabicyclo[2.2.1]heptane-2-carboxylic acid tert-butyl ester] | 5.1
O=Cc1c(N2CCNCC2)n(-c2cccnc2)c2ccccc12 [Example 13, 2-(Piperazin-1-yl)-1-(pyridin-3-yl)-1H-indole-3-carboxaldehyde] | 3
O=Cc1c(N2CC3CC2CN3)n(-c2ccccc2)c2ccccc12 (stereo not drawn) [Example 21] | 5.1
O=Cc1c(N2CCCNCC2)n(-c2ccccc2)c2ccccc12 [Example 22, 2-[1,4]Diazepan-1-yl-1-phenyl-1H-indole-3-carboxaldehyde] | 4.5
O=Cc1c(N2CCNCC2)n(-c2ccc(-c3ccccc3)cc2)c2ccccc12 [Example 47, 1-(Biphenyl-4-yl)-2-piperazin-1-yl-1H-indole-3-carboxaldehyde Hydrochloride] | 6.9
O=Cc1c(N2CCNCC2)n(-c2cccc(Br)c2)c2ccccc12 [Example 49, 1-(3-Bromophenyl)-2-piperazin-1-yl-1H-indole-3-carboxaldehyde] | 1.9
O=Cc1c(N2CCNCC2)n(-c2ccc(Cl)cc2)c2ccccc12 [Example 11B-6, 2-(Piperazin-1-yl)-1-(4-chlorophenyl)-1H-indole-3-carboxaldehyde] | 4
O=Cc1c(N2CCOCC2)n(-c2ccccc2)c2ccccc12 [Example 43, 2-(Morpholin-4-yl)-1-phenyl-1H-indole-3-carboxaldehyde] | 11.4
O=Cc1cccc(-n2c(N3CCNCC3)c(C=O)c3ccccc32)c1 [Example 46] | 0.85
CC(C)(C)OC(=O)NCCN1CCN(c2c(C=O)c3ccccc3n2-c2ccccc2)CC1 [Example 19] | 8.8
O=Cc1c(N2CCNCC2)n(-c2ccc(Oc3ccccc3)cc2)c2ccccc12 [Example 52, 1(4-Phenoxyphenyl)-2-(piperazin-1-y)l-1H-indole-3-carboxaldehyde] | 42.2
CCc1ccc(-n2c(N3CCNCC3)c(C=O)c3ccccc32)cc1 [Example 48, 1-(4-Ethylphenyl)-2-(piperazin-1-yl)-1H-indole-3-carboxaldehyde Hydrochloride] | 15.5
Cn1c(N2CCNCC2)c(C=O)c2ccccc21 [Example 9, 2-(Piperazin-1-yl)-1-methyl-1H-indole-3-carboxaldehyde] | 27.5
O=Cc1c(N2CCNCC2)n(-c2cccc(Cl)c2)c2ccccc12 [Example 55] | 4.1
O=Cc1c(N2CCNCC2)n(-c2ccsc2)c2ccccc12 [Example 12, 2-(Piperazin-1-yl)-1-(thien-3-yl)-1H-indole-3-carboxaldehyde] | 2

Tested on: HL-60 (human leukemia) cells
Test: Cell-based assay: protection from cell death induced by serum deprivation (Alamar Blue)
Settings: median effective concentration preventing cell death, HL-60, 0.1% FCS, 24 hr
Description: HL-60 (human leukemia) cells are grown and maintained using standard procedures in RPMI 1640+Glutamax medium supplemented with 10% fetal calf serum (FCS). For assay, cells are suspended in medium supplemented with 0.1% FCS at 0.5 million cells/mL and seeded into 96 well plates (100 μL/well). After preincubation for 3 hrs, cells are treated with compound for 1 hr, then Alamar Blue (Serotec) is added to the cells. After a further 24 hr incubation, fluorescence is measured (ex 560 nm, em 590 nm). Decrease in fluorescence compared to control cells (10 μM of a potent PARP inhibitor) is a measure of cell death. Increased fluorescence in the presence of test compound indicates protection from cell death induced by serum deprivation. For detection of polyADP-ribosylation, cells are subjected to serum deprivation in the presence and absence of compound. Cells are lysed and proteins are run on an SDS-PAGE gel. PolyADP-ribosylated proteins are detected with antibody to polyADP-ribose (Alexis or Calbiochem).
The results obtained from this study are expressed as EC50 (median effective concentration of the test compound that was effective in preventing the cell death—expressed in micromolar (μM) concentration) for each of the tested compounds and are summarized in Table 4.

Structure (SMILES) | pEC50
O=Cc1c(N2CCN(CCO)CC2)n(-c2ccccc2)c2ccccc12 [Example 2, 2-[4-(2-hydroxyethyl)piperazin-1-yl]-1-phenyl-1H-indole-3-carboxaldehyde] | 5.47
Cn1c(N2CCNCC2)c(C=O)c2ccccc21 [Example 9, 2-(Piperazin-1-yl)-1-methyl-1H-indole-3-carboxaldehyde] | 5.10
O=Cc1c(N2CCNCC2)n(-c2ccsc2)c2ccccc12 [Example 12, 2-(Piperazin-1-yl)-1-(thien-3-yl)-1H-indole-3-carboxaldehyde] | 5.52

Tested on: not given
Test: not given
Settings: not given

Structure (SMILES) | melting point [°C]
O=Cc1c(N2CCNCC2)n(Cc2ccccc2)c2ccccc12 | 163 to 165

Molecular target: T1, human PARP (PARP1)
Test: Radioactivity enzyme assay: incorporation of labeled NAD into acid-precipitated protein
Type: biochemical
Settings: reference compounds, NAD 200 μm
Description: Full length human PARP (PARP1) is assembled from PCR fragments of a clone from a human brain cDNA library and two Incyte clones. The PARP gene (3046 bp) is sub-cloned into pFastBac-HTb vector to give PARP-pFastBac-HTh and the sequence of this clone is verified. PARP-pFastBac-HTb is expressed to obtain protein using the Bac-to-Bac expression protocol from Gibco-BRL. The recombinant virus generated is used to scale up the material for purification.
Cell pellets from cell broth of cells expressing PARP are treated with a cocktail of protease inhibitors and lysed by 4 freeze-thaw cycles. The material is suspended in 10 mM HEPES/0.1M NaCl/pH 7.2, stirred, and then centrifuged. A 40%-70% ammonium sulfate cut of protein pellet is obtained from the supernatant. The pellet is solubilized in 10 mM HEPES/pH 7.2 and centrifuged. The supernatant buffer is exchanged to 10 mM HEPES/pH 7.2/0.1M NaCl/25% glycerol by dialysis or with a desalting column. The enzyme preparation is stored at −20° C. until use.
Incorporation of radioactivity from labeled NAD into acid-precipitated protein is measured. […] After washing with TCA and ethanol, the filter is dried and counted for tritium CPM after addition of scintillation fluid.

Structure (SMILES) | pIC50
Oc1cccc2c(O)nccc12 [1,5-isoquinolinediol] | 6.00
